Test results: ChEMBL document CHEMBL1147867, “Identification of antitumour activity of novel derivatives of 8-aryl-2,6,7,8-tetrahydroimidazo[2,1-c][1,2,4]triazine-3,4-dione and 8-aryl-4-imino-2,3,7,8-tetrahydroimidazo[2,1-c][1,2,4]triazin-3(6H)-one” (Bioorg Med Chem, 2007)
Values after ≈ are worked out from the molar mass of the structure shown.

How the values were obtained:
[1] = Cytotoxicity against Vero cells at 10 ug/ml after 72 hrs; assay type: cell-based; details: chlorocebus sabaeus, read-out: Inhibition
Staphylococcus aureus = test: Antibacterial activity against Staphylococcus aureus after 24 hrs by microdilution broth method; assay type: functional
[2] = tested on: Staphylococcus epidermidis; test: Antibacterial activity against Staphylococcus epidermidis after 24 hrs by microdilution broth method; assay type: functional
[3] = Cytotoxicity against human LS180 cells at 10 ug/ml after 72 hrs; assay type: functional; details: LS180, 72 h
[4] = Cytotoxicity against Vero cells at 50 ug/ml after 72 hrs; assay type: cell-based; details: chlorocebus sabaeus, read-out: Inhibition
T47D [5] = test: Cytotoxicity against human T47D cells at 10 ug/ml after 72 hrs; assay type: functional
[6] = Cytotoxicity against human LS180 cells at 50 ug/ml after 72 hrs; assay type: functional; details: LS180, 72 h
T47D [7] = test: Cytotoxicity against human T47D cells at 50 ug/ml after 72 hrs; assay type: functional
Streptococcus pyogenes = test: Antibacterial activity against Streptococcus pyogenes after 24 hrs by microdilution broth method; assay type: functional
Escherichia coli = test: Antibacterial activity against Escherichia coli after 24 hrs by microdilution broth method; assay type: functional
HeLa [8] = test: Cytotoxicity against human HeLa cells at 10 ug/ml after 72 hrs; assay type: functional
HeLa [9] = test: Cytotoxicity against human HeLa cells at 50 ug/ml after 72 hrs; assay type: functional
RPMI-8226 [10] = test: Cell viability in human RPMI 8226 ECACC 87012702 cancer cells at 50 uM after 24 hrs by MTT assay; assay type: functional
A549 [11] = test: Anticancer activity against human A549 cells at 50 ug/ml after 72 hrs; assay type: functional; details: A549, 72 h
RPMI-8226 [12] = test: Cell viability in human RPMI 8226 ECACC 87012702 cancer cells at 100 uM after 24 hrs by MTT assay; assay type: functional
[13] = Acute toxicity in mouse; assay type: organism-based; details: in vivo
A549 [14] = test: Anticancer activity against human A549 cells at 10 ug/ml after 72 hrs; assay type: functional; details: A549, 72 h
[15] = Cell viability in HSF cells at 50 uM after 24 hrs by MTT assay; assay type: cell-based, Fibroblast; details: human, read-out: Activity
[16] = Cell viability in HSF cells at 100 uM after 24 hrs by MTT assay; assay type: functional, Homo sapiens, Fibroblast
[17] = Cell viability in HSF cells at 1 uM after 24 hrs by MTT assay; assay type: cell-based, Fibroblast; details: human, read-out: Activity
RPMI-8226 [18] = test: Cell viability in human RPMI 8226 ECACC 87012702 cancer cells at 1 uM after 24 hrs by MTT assay; assay type: functional

Structure (SMILES)	cytotoxicity at 72 h, 10 ug/ml [1] [%]	MIC (Staphylococcus aureus) [µM]	MIC [2] [µM]	inhibition at 10 µg/mL [3] [%]	cytotoxicity at 72 h, 50 ug/ml [4] [%]	inhibition at 10 µg/mL (T47D [5]) [%]	inhibition at 50 µg/mL [6] [%]	inhibition at 50 µg/mL (T47D [7]) [%]	MIC (Streptococcus pyogenes) [µM]	MIC (Escherichia coli) [µM]	inhibition at 10 µg/mL (HeLa [8]) [%]	inhibition at 50 µg/mL (HeLa [9]) [%]	Activity (RPMI-8226 [10]) [%]	inhibition at 50 µg/mL (A549 [11]) [%]	Activity (RPMI-8226 [12]) [%]	LD50 [13] [mg/kg]	viability at 24 h, 50 µM [15] [%]	Activity [16] [%]	viability at 24 h, 1 µM [17] [%]	Activity (RPMI-8226 [18]) [%]	also measured
COc1ccc(N2CCN/C2=N\N)cc1	0	29.9 (≈ 6.17 µg/mL)	18.7 (≈ 3.86 µg/mL)	4	0	17	9	23	59.8 (≈ 12.3 µg/mL)	15 (≈ 3.09 µg/mL)	0	0									
N/N=C1\NCCN1c1ccccc1	0	41.1 (≈ 7.24 µg/mL)	41.1 (≈ 7.24 µg/mL)	1	0	0	0	0	65.8 (≈ 11.6 µg/mL)	41.1 (≈ 7.24 µg/mL)	6	3									
O=c1[nH]nc2n(c1=O)CCN2c1ccccc1	7			0	30	0	12	0			0	0	96	17	86	1400	95	94	93	96	inhibition at 10 µg/mL (A549 [14]): 0%
O=c1[nH]nc2n(c1=O)CCN2c1cccc(Cl)c1	11			0	24	0	0	0			27	38	68	0	62	> 2000	91	91	95	89	inhibition at 10 µg/mL (A549 [14]): 0%
COc1ccccc1N1CCN/C1=N\N		37.4 (≈ 7.71 µg/mL)	37.4 (≈ 7.71 µg/mL)						74.8 (≈ 15.4 µg/mL)	29.9 (≈ 6.17 µg/mL)											
N/N=C1\NCCN1c1ccccc1Cl	0			7	0	22	0	27			2	0									
COc1ccc(N2CCn3c2n[nH]c(=O)c3=O)cc1	0			0	10	7	46	21			6	0	99	0	99	1500	92	94	94	98	inhibition at 10 µg/mL (A549 [14]): 0%
O=C(N[C@H](CO)[C@H](O)c1ccc([N+](=O)[O-])cc1)C(Cl)Cl [CHLORAMPHENICOL]		12.1 (≈ 3.91 µg/mL)	6 (≈ 1.94 µg/mL)							12.1 (≈ 3.91 µg/mL)											
N/N=C1\NCCN1c1ccc(Cl)cc1		29.5 (≈ 6.21 µg/mL)	18.4 (≈ 3.88 µg/mL)						59.1 (≈ 12.5 µg/mL)	36.9 (≈ 7.77 µg/mL)											
COc1ccccc1N1CCn2c1n[nH]c(=O)c2=O	26			30	17	1	29	9			5	8	90	39	85	1100	101	94	103	90	inhibition at 10 µg/mL (A549 [14]): 0%
O=c1[nH]nc2n(c1=O)CCN2c1ccc(Cl)c(Cl)c1													35		25		90	90	109	98	
